Assay results taken from patent US20260083750A1, “SMALL MOLECULE INHIBITORS OF KRAS PROTEINS” (MERCK SHARP & DOHME LLC, priority 2022, published 2026).

Columns and labels:
NRAS = NRAS (Homo sapiens, UniProt P01111); experiment: SOS-catalyzed nucleotide exchange assay (Procedure A, TR-FRET); type: biochemical; conditions: 60 min preincubation, SOS + GTP, read-out: NRAS GNE IC50
From the text: (§1) Procedure for SOS-Catalyzed Nucleotide Exchange Assay for KRAS-G12C/D/V, G13D, HRAS, and NRAS (Procedure A)
(§2) Recombinant KRAS-G12C protein used in this assay has an additional triple mutation (C51S/C80L/C118S), whereas KRAS-G12D/V, G13D, HRAS and NRAS are in context of their WT protein sequence background. Specifically, the SOS-catalyzed nucleotide exchange assay utilizes a preformed TR-FRET complex containing a specific biotinylated RAS protein (KRAS-G12C/V/D, G13D, HRAS, NRAS; described above) with Bodipy-GDP, and Terbium-streptavidin. Compounds are preincubated with this complex for 60 minutes. Subsequently, recombinant human SOS protein and unlabeled GTP are added to initiate the exchange reaction. Small molecule inhibitors stabilize the Bodipy-GDP complex whereas the untreated protein rapidly exchanges Bodipy-GDP for unlabeled GTP resulting in reduced TR-FRET signal.
(§3) To assemble the preformed TR-FRET complexes, each biotinylated RAS protein is diluted to 2 μM in an EDTA Buffer (20 mM HEPES pH 7.5, 50 mM sodium chloride, 10 mM EDTA, and 0.01% Tween) and incubated at room temperature for one hour. This mixture is then further diluted to 90 nM in an Assay Buffer (20 mM HEPES pH 7.5, 150 mM sodium chloride, 10 mM magnesium chloride, and 0.005% Tween) containing 15 nM of Terbium-Streptavidin (Invitrogen, catalog #PV3577) and 900 nM of Bodipy-GDP (Invitrogen, catalog #G22360) and incubated at room temperature for six hours. It should be noted that this preformed TR-FRET complex for each of the RAS protein were made ahead of time, aliquoted and stored at −80° C. until the day of the experiment.
(§4) Each test compound (10 mM stock in DMSO) is diluted in DMSO to make a final-10-point, 3-fold dilution and is acoustically dispensed into a 384-well assay plate (Corning, catalog #3820) using an Echo 550 (Labcyte). Each well of the assay plate receives 3 μL of a specific 3× RAS preformed TR-FRET complex and 3 μL of Assay Buffer and is incubated at room temperature for 60 minutes (preincubation time). Each well then receives 3 μL of 3× recombinant human SOS protein and GTP (Sigma, G8877) in Assay Buffer and is incubated at room temperature for 30 minutes (G13D), 60 minutes (G12C/D, H/NRAS) or 90 minutes for G12V. The final reaction in each well of […] consists of 3 mM GTP, specific Ras and SOS proteins in the following concentrations: KRAS-G12C/SOS=3 nM/40 nM, KRAS-G12D/SOS=1 nM/40 nM, KRAS-G12V/SOS=1.25 nM/160 nM, KRAS-G13D/SOS=1.25 nM/0 nM, HRAS & NRAS=1.25 nM/40 nM.
(§5) The time-resolved fluorescence resonance energy transfer (TR-FRET) signal is measured on an Envision (PerkinElmer) plate reader: Excitation filter=340 nm; emission1=495 nm; emission2=520 nm; dichroic mirror=D400/D505; delay time=[…]. The signal of each well is determined as the ratio of the emission at 520 nm to that at 495 nm. Percent effect of each well is determined after normalization to control wells containing DMSO (no effect) or a saturating concentration of inhibitor (max effect). The apparent effect as a function of compound concentration is fit to a four-parameter logistic equation.

HRAS = HRAS (Homo sapiens, UniProt P01112); experiment: as above; type: biochemical; conditions: 60 min preincubation, SOS + GTP, read-out: HRAS GNE IC50
From the text: as §1, §2, §3, §4, §5

[1] = tested on: PANC08.13 cells (homozygous KRAS-G12D activating mutation); experiment: Cellular phospho-ERK assay in G12D cell line; type: cell-based; conditions: Homo sapiens, PANC-08-13, 2 hours compound incubation, ratio of p-ERK vs. total ERK, read-out: PANC 0813 pERK IC50
Method: (§6) Procedure for Cellular Phospho-ERK Assay in G12D and G12V Cell Lines
(§7) PANC08.13 cells (ATCC® CRL-2551™), containing homozygous KRAS-G12D activating mutation, were cultured in growth medium made of RPMI1640-GlutaMAX™—I (ThermoFisher Scientific 61870) containing 15% heat inactivated fetal bovine serum (ThermoFisher Scientific 10091148)). SW620 cells (ATCC® […]), containing homozygous KRAS-G12V activating mutation, were cultured in growth medium that contains RPMI 1640-GlutaMAX™—I (ThermoFisher Scientific 61870) containing 10% heat inactivated fetal bovine serum (ThermoFisher Scientific 10091148).
(§8) Cells for the assay were harvested in growth medium after TrypLE (ThermoFisher scientific 12604021) digestion and were seeded in a 384-well collagen coated cell culture plate (Corning 356702) at a density of 10,000-15,000 cells/20 uL/well, and incubated at 37° C., 5% CO2 overnight. The compound (with 10 mM stock concentration) dose-response titrations were prepared [30 μM final ERK detection assay concentration and 1:3 dilutions, 10-point dose response] and appropriate amounts (270 nL) of test compounds were dispensed in a 384-well intermediate plate using an Echo 550 liquid handler. 30 uL/well of RPMI medium 1640-GlutaMAX™—I was added to the intermediate plate and the contents of the intermediate plate (10 uL/well) were then transferred to the 384-well collagen coated cell culture plate, which was incubated at 37° C., 5% CO2 for 2 hours. After removal of medium from the collagen coated cell culture plate, cells were lysed in lysis buffer from Alpha SureFire® Ultra™ Multiplex p-ERK and total ERK assay kit (PerkinElmer MPSU-PTERK) containing Halt™ Protease and Phosphatase inhibitor cocktail (ThermoFisher Scientific 78446) at room temperature with constant shaking at 300 rpm for 30 minutes. The cell lysates were then transferred to an OptiPlate-384 plate (PerkinElmer 6005620), and the phosphorylation of ERK (p-ERK) and total ERK levels were detected by Alpha SureFire® Ultra™ Multiplex p-EEK kit and total ERK assay kit (PerkinElmer MPSU-PTERK) following the manufacturer's protocol. Assay plates were read on a EnVision Multimode Plate Reader (PerkinElmer), and the ratio of p-ERK vs. total ERK in each well was used as the final readout. Dose response curves were analyzed using a 4-parameter logistic model to calculate IC50 values using Spotfire software.

[2] = tested on: SW620 cells (homozygous KRAS-G12V activating mutation); experiment: Cellular phospho-ERK assay in G12V cell line; type: cell-based; conditions: Homo sapiens, SW-620, 2 hours compound incubation, ratio of p-ERK vs. total ERK, read-out: SW620 pERK IC50
Method: as §6, §7, §8

KRAS-G12D = molecular target: T1, KRAS-G12D (Homo sapiens, UniProt P01116, G12D); experiment: SOS-catalyzed nucleotide exchange assay (Procedure A, TR-FRET); type: biochemical; conditions: 60 min preincubation, SOS + GTP, read-out: KRAS G12D GNE IC50
T1 construct: N-terminal biotin-acceptor peptide […]
From the text: as §1, §2, §3, §4
as §5, with “Percent effect of each well is determined after normalization to control wells containing DMSO (no effect) or a saturating concentration of inhibitor (max effect).” left out

KRAS-G12V = molecular target: T2, KRAS-G12V (Homo sapiens, UniProt P01116, G12V); experiment: as above; type: biochemical; conditions: 60 min preincubation, SOS + GTP, read-out: KRAS G12V GNE IC50
T2 construct: N-terminal biotin-acceptor peptide […]
From the text: as §1, §2, §3, §4
as §5, with “Percent effect of each well is determined after normalization to control wells containing DMSO (no effect) or a saturating concentration of inhibitor (max effect).” left out

KRAS-G13D = molecular target: T3, KRAS-G13D (Homo sapiens, UniProt P01116, G13D); experiment: as above; type: biochemical; conditions: 60 min preincubation, GTP, read-out: KRAS G13D GNE IC50
T3 construct: N-terminal biotin-acceptor peptide […]
From the text: as §1, §2, §3, §4
as §5, with “Percent effect of each well is determined after normalization to control wells containing DMSO (no effect) or a saturating concentration of inhibitor (max effect).” left out

[3] = molecular target: T4, KRAS-G12C (C51S/C80L/C118S) (Homo sapiens, UniProt P01116, C118S/C51S/C80L/G12C); experiment: as above; type: biochemical; conditions: 60 min preincubation, SOS + GTP, read-out: KRAS G12C GNE IC50
T4 construct: N-terminal biotin-acceptor peptide […]
From the text: as §1, §2, §3, §4
as §5, with “Percent effect of each well is determined after normalization to control wells containing DMSO (no effect) or a saturating concentration of inhibitor (max effect).” left out

T2 sequence (P01116 with tags, fused parts or gaps isoform P01116-2 G12V): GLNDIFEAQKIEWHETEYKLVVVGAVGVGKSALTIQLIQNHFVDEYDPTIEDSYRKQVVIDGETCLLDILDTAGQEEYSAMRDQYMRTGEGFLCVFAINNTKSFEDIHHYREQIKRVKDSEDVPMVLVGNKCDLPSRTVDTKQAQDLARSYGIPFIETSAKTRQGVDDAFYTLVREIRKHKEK
Chain of NRAS (P01111 with tags, fused parts or gaps): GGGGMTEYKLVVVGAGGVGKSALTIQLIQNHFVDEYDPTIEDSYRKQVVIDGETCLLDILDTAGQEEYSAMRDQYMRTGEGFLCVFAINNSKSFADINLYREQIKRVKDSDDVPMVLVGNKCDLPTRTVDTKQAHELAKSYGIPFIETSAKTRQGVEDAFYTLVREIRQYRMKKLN
Chain of HRAS (P01112 with tags, fused parts or gaps): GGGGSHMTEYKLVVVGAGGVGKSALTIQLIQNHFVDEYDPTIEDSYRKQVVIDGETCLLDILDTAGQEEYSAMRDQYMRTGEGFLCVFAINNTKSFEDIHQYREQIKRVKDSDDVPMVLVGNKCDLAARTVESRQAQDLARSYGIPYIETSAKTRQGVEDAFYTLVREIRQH
T1 sequence (P01116 with tags, fused parts or gaps isoform P01116-2 G12D): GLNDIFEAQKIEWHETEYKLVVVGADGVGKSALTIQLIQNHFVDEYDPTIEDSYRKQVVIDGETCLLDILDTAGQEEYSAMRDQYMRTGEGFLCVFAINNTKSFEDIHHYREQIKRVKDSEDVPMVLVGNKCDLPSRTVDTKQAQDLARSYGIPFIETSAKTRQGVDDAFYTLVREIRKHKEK
T3 sequence (P01116 with tags, fused parts or gaps isoform P01116-2 G13D): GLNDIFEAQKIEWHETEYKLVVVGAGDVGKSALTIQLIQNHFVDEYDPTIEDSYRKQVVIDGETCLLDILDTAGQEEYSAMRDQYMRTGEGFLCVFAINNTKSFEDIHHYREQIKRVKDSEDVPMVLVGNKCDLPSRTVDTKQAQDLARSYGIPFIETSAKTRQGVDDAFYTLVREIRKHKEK
T4 sequence (P01116 with tags, fused parts or gaps isoform P01116-2 G12C/C51S/C80L/C118S): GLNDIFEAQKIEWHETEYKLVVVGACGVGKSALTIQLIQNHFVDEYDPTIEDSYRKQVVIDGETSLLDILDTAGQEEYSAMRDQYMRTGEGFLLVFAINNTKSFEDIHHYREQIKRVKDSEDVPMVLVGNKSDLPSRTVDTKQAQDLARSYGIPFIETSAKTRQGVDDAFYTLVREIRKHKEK

Compound	IC50 (NRAS) [nM]	IC50 (HRAS) [nM]	IC50 [1] [nM]	IC50 [2] [nM]	IC50 (KRAS-G12D) [nM]	IC50 (KRAS-G12V) [nM]	IC50 (KRAS-G13D) [nM]	IC50 [3] [nM]
C[C@H]1CCOCCN1c1nc(OC[C@@]23CCCN2C[C@H](F)C3)nc2c(F)c(-c3ccc(F)c4sc(N)c(C#N)c34)c(Cl)cc12 (single isomer, unassigned) [Ex. 19]	4310	2070	34.2	15	2.4	2.32	2.37	6.07
N#Cc1c(N)sc2c(F)ccc(-c3c(Cl)cc4c(N5CCCCCC5)nc(OC[C@@]56CCCN5C[C@H](F)C6)nc4c3F)c12 [Ex. 1, 2-amino-4-(4-(azepan-1-yl)-6-chloro-8-fluoro-2-(((2R,7aS)-2-fluorotetrahydro-1H-pyrrolizin-7a(5H)-yl)methoxy)quinazolin-7-yl)-7-fluorobenzo[b]thiophene-3-carbonitrile]	> 11100	> 11100	68.8	74.5	–	–	–	–
C[C@@H]1CCCCCN1c1nc(OC[C@@]23CCCN2C[C@H](F)C3)nc2c(F)c(-c3ccc(F)c4sc(N)c(C#N)c34)c(Cl)cc12 [Ex. 2, 2-amino-4-(6-chloro-8-fluoro-2-(((2R,7aS)-2-fluorotetrahydro-1H-pyrrolizin-7a(5H)-yl)methoxy)-4-((R)-2-methylazepan-1-yl)quinazolin-7-yl)-7-fluorobenzo[b]thio-phene-3-carbonitrile]	–	–	372	408	8.61	13.2	–	–
C[C@H]1CCCCCN1c1nc(OC[C@@]23CCCN2C[C@H](F)C3)nc2c(F)c(-c3ccc(F)c4sc(N)c(C#N)c34)c(Cl)cc12 [Ex. 3, 2-amino-4-(6-chloro-8-fluoro-2-(((2R,7aS)-2-fluorotetrahydro-1H-pyrrolizin-7a(5H)-yl)methoxy)-4-((S)-2-methylazepan-1-yl)quinazolin-7-yl)-7-fluorobenzo[b]thio-phene-3-carbonitrile]	> 11100	> 11100	776	806	113	40.3	54.6	30.9
N#Cc1c(N)sc2c(F)ccc(-c3c(Cl)cc4c(N5CCOCCC5C5CC5)nc(OC[C@@]56CCCN5C[C@H](F)C6)nc4c3F)c12 (stereo partly drawn) [compound 17, 2-amino-4-(6-chloro-4-(5-cyclopropyl-1,4-oxazepan-4-yl)-8-fluoro-2-(((2R,7aS)-2-fluorotetrahydro-1H-pyrrolizin-7a(5H)-yl)methoxy)quinazo-lin-7-yl)-7-fluorobenzo[b]thio-phene-3-carbonitrile]	> 11100	> 11100	2260	–	188	44.1	63.7	51.1
C[C@H]1CCOCCN1c1nc(OC[C@]2(CN(C)C)CC2(F)F)nc2c(F)c(-c3ccc(F)c4sc(N)c(C#N)c34)ncc12 [compound 22, 2-amino-4-(2-(((R)-1-((dimethylamino)meth-yl)-2,2-difluorocyclopropyl)methoxy)-8-fluoro-4-((S)-5-methyl-1,4-oxazepan-4-yl)pyrido[4,3-d]pyrimidin-7-yl)-7-fluorobenzo[b]thiophene-3-carbonitrile]	> 11100	> 11100	413	–	253	49.5	44.8	22.6
CCNC[C@@]1(COc2nc(N3CCCOCC3)c3cc(Cl)c(-c4ccc(F)c5sc(N)c(C#N)c45)c(F)c3n2)CC1(F)F [compound 30, 2-amino-4-(6-chloro-2-(((R)-1-((ethylamino)methyl)-2,2-difluorocyclopropyl)methoxy)-8-fluoro-4-(1,4-oxazepan-4-yl)quinazolin-7-yl)-7-fluorobenzo[b]thiophene-3-carbonitrile]	–	–	849	305	206	33	–	–
CN1CCC[C@H]1COc1nc(N2CCCOCC2)c2cc(Br)c(-c3ccc(F)c4sc(N)c(C#N)c34)c(F)c2n1 [compound 38, 2-amino-4-(6-bromo-8-fluoro-2-(((S)-1-methylpyrrolidin-2-yl)methoxy)-4-(1,4-oxazepan-4-yl)quinazolin-7-yl)-7-fluorobenzo[b]thiophene-3-carbonitrile]	> 11100	> 11100	300	–	47.1	8.97	17.2	30.5
